According to ChEMBL document CHEMBL1138641, “2-(4-Methoxyphenoxy)-5-nitro-N-(4-sulfamoylphenyl)benzamide activates Kir6.2/SUR1 K(ATP) channels” (Bioorg Med Chem Lett, 2004):

Legend:
Beta-TC6 [1] = experiment: Percent efficacy for inhibition of glucose stimulated insulin release from beta TC6 cells; type: functional, Mus musculus
HEK293 = experiment: Potency by repolarisation of tolbutamide-depolarised membrane potential in HEK 293 cells; details: Homo sapiens
[2] = inhibitory concentration required for repolarization of beta cell membrane potential in presence of 10 mM glucose; type: functional, Homo sapiens
Beta-TC6 [3] = experiment: Concentration required for inhibition of glucose stimulated insulin release from beta TC6 cells; type: functional, cell-based, Mus musculus
[4] = Mus musculus, Beta-TC6, read-out: IC50

IC50 ([2]; Homo sapiens, read-out: IC50) [µM] | IC50 (Beta-TC6 [3]; [4]) [µM] | IC50 [2] | IC50 (Beta-TC6 [3]; beta-tc6) | SMILES | Efficacy (Beta-TC6 [1]) [%] | IC50 (HEK293) [µM]
0.25 | 0.46 | – | – | CC(C)NC1=NS(=O)(=O)c2cc(Cl)ccc2N1 | 75 | 0.8
3.4 | 1.6 | – | – | COc1ccc(NC(=O)c2cc([N+](=O)[O-])ccc2Oc2ccc(OC)cc2)cc1 | 73 | –
– | 10.4 | No significant activity | – | COc1ccc(Oc2ccc([N+](=O)[O-])cc2C(=O)Nc2ccccc2S(N)(=O)=O)cc1 | 33 | –
8.3 | 10.4 | – | – | CCN(C(=O)c1cc([N+](=O)[O-])ccc1Oc1ccc(OC)cc1)c1ccc(Cl)cc1 | 56 | –
8.1 | 1.12 | – | – | COc1ccc(Oc2ccc([N+](=O)[O-])cc2C(=O)Nc2ccc(C(C)=O)cc2)cc1 | 75 | –
– | 26.6 | No significant activity | – | COc1ccc(Nc2ccc([N+](=O)[O-])cc2C(=O)Nc2ccc(S(N)(=O)=O)cc2)cc1 | 1 | –
2.5 | 48.5 | – | – | COc1ccc(NC(=O)c2cc(C#N)ccc2Oc2ccc(OC)cc2)cc1 | 17 | –
7.2 | 5.67 | – | – | COc1ccc(Oc2ccc([N+](=O)[O-])cc2C(=O)Nc2ccc(F)cc2)cc1 | 52 | –
– | – | No significant activity | No significant activity | COc1ccc(NC(=O)c2ccccc2Oc2ccccc2)cc1 | – | –
9.9 | 20.5 | – | – | COc1ccc(Oc2ccc([N+](=O)[O-])cc2C(=O)Nc2cccc(S(N)(=O)=O)c2)cc1 | 31 | –
1.8 | 0.82 | – | – | COc1ccc(Oc2ccc([N+](=O)[O-])cc2C(=O)Nc2ccc(S(N)(=O)=O)cc2)cc1 | 79 | 1.3
– | – | No significant activity | No significant activity | COc1ccc(NC(=O)c2cc(N)ccc2Oc2ccc(OC)cc2)cc1 | – | –
10.1 | 25.7 | – | – | COc1ccc(Oc2ccc([N+](=O)[O-])cc2C(=O)N(C)c2ccc(Cl)cc2)cc1 | 33 | –
13.7 | 23 | – | – | CC1=Nc2ccc(Cl)cc2S(=O)(=O)N1 [DIAZOXIDE] | 25 | 33
0.6 | 0.25 | – | – | CC1(NC2=NS(=O)(=O)c3sc(Cl)cc3N2)CC1 [TIFENAZOXIDE] | 73 | –
